# Measured values: ChEMBL document CHEMBL5360558, “Molecular design, synthesis and anticancer activity of new thiopyrano[2,3-d]thiazoles based on 5-hydroxy-1,4-naphthoquinone (juglone)” (Eur J Med Chem, 2023)
# Active and inactive are the calls of the source. The rule behind the calls is not given here.
# Assays:
# MOLT-4 = test: Growth inhibition against human MOLT-4 cells assessed as lethal concentration incubated for 48 hrs by sulforhodamine B spectrophotometric assay; format: functional; details: read-out: LC50 (the source's name)
# EKVX = test: Growth inhibition of human EKVX cells incubated for 48 hrs by sulforhodamine B spectrophotometric assay; format: functional
# K562 = test: Cytotoxicity against human K562 cells assessed as cell growth inhibition incubated for 72 hrs by MTT assay; format: functional, cell-based; details: K562, 72 h
# PC-3 [1] = test: Growth inhibition against human PC-3 cells assessed as total growth inhibitory concentration incubated for 48 hrs by sulforhodamine B spectrophotometric assay; format: functional
# NCI-H460 = test: Growth inhibition of human NCI-H460 cells incubated for 48 hrs by sulforhodamine B spectrophotometric assay; format: functional
# M14 = test: Growth inhibition against human M14 cells assessed as total growth inhibitory concentration incubated for 48 hrs by sulforhodamine B spectrophotometric assay; format: functional
# MDA-MB-231 = test: Induction of mitochondrial membrane potential loss in human MDA-MB-231 cells at 10 uM incubated for 24 hrs by JC-1 staining based flow cytometry analysis; format: functional
# [2] = Cytotoxicity against mouse NIH3T3 cells assessed as cell growth inhibition incubated for 72 hrs by MTT assay; format: toxicity, cell-based
# SF-268 [3] = test: Growth inhibition against human SF-268 cells assessed as lethal concentration incubated for 48 hrs by sulforhodamine B spectrophotometric assay; format: functional; details: read-out: LC50 (the source's name)
# COLO 205 = test: Growth inhibition against human COLO 205 cells assessed as lethal concentration incubated for 48 hrs by sulforhodamine B spectrophotometric assay; format: functional; details: read-out: LC50 (the source's name)
# [4] = Acute toxicity in C57BL/6 mouse assessed as ratio of spleen weight to body weight at 20 mg/kg,ip administration and observed after 22 days (reference value: 0.53 +/- 0.18); format: organism-based; details: in vivo, 528 h, time 22 day
# KB 3-1 = test: Induction of cell morphological changes in human KB 3-1 cells at 1 uM incubated for 24 hrs by Hoechst-33342 staining based fluorescent microscopy analysis; format: functional
# SF-268 [5] = test: Growth inhibition of human SF-268 cells incubated for 48 hrs by sulforhodamine B spectrophotometric assay; format: functional
# SF-539 = test: Growth inhibition of human SF-539 cells incubated for 48 hrs by sulforhodamine B spectrophotometric assay; format: functional
# PC-3 [6] = test: Growth inhibition against human PC-3 cells assessed as lethal concentration incubated for 48 hrs by sulforhodamine B spectrophotometric assay; format: functional; details: read-out: LC50 (the source's name)
# BT-549 = test: Growth inhibition against human BT-549 cells assessed as total growth inhibitory concentration incubated for 48 hrs by sulforhodamine B spectrophotometric assay; format: functional
# TK-10 = test: Growth inhibition of human TK-10 cells incubated for 48 hrs by sulforhodamine B spectrophotometric assay; format: functional
# CCRF-CEM [7] = test: Induction of cell cycle arrest in human CCRF-CEM cells assessed as DNA synthesis at 4.14 uM incubated for 2.5 hrs by BrdU incorporation based flow cytometry analysis (reference value: 42.4 +/- 0.66%); format: functional
# NCI-H322M = test: Growth inhibition against human NCI-H322M cells assessed as lethal concentration incubated for 48 hrs by sulforhodamine B spectrophotometric assay; format: functional; details: read-out: LC50 (the source's name)
# SF-295 [8] = test: Growth inhibition against human SF-295 cells assessed as lethal concentration incubated for 48 hrs by sulforhodamine B spectrophotometric assay; format: functional; details: read-out: LC50 (the source's name)
# MCF7 = test: Cytotoxicity against human MCF7 cells assessed as cell growth inhibition incubated for 72 hrs by MTT assay; format: functional, cell-based; details: MCF7, 72 h
# NCI-H226 = test: Growth inhibition of human NCI-H226 cells incubated for 48 hrs by sulforhodamine B spectrophotometric assay; format: functional
# CCRF-CEM [9] = test: Induction of cell cycle arrest in human CCRF-CEM cells assessed as accumulation of cells at higher G2/M phase at 20.7 uM incubated for 24 hrs by propidium iodide staining based flow cytometry analysis (reference value: 10.09 +/- 0.14%); format: functional
# SK-OV-3 = test: Growth inhibition against human SK-OV-3 cells assessed as total growth inhibitory concentration incubated for 48 hrs by sulforhodamine B spectrophotometric assay; format: functional
# HL-60 = test: Growth inhibition of human HL-60 cells incubated for 48 hrs by sulforhodamine B spectrophotometric assay; format: functional
# SR = test: Growth inhibition against human SR cells assessed as total growth inhibitory concentration incubated for 48 hrs by sulforhodamine B spectrophotometric assay; format: functional
# Malme-3M = test: Growth inhibition of human Malme-3M cells incubated for 48 hrs by sulforhodamine B spectrophotometric assay; format: functional
# SK-MEL-5 = test: Growth inhibition against human SK-MEL-5 cells assessed as lethal concentration incubated for 48 hrs by sulforhodamine B spectrophotometric assay; format: functional; details: read-out: LC50 (the source's name)
# SW-620 = test: Growth inhibition against human SW620 cells assessed as total growth inhibitory concentration incubated for 48 hrs by sulforhodamine B spectrophotometric assay; format: functional
# OVCAR-8 = test: Growth inhibition against human OVCAR-8 cells assessed as lethal concentration incubated for 48 hrs by sulforhodamine B spectrophotometric assay; format: functional; details: read-out: LC50 (the source's name)
# [10] = Acute toxicity in C57BL/6 mouse assessed as ratio of lung weight to body weight at 20 mg/kg,ip administration and observed after 22 days (reference value: 0.8 +/- 0.09); format: organism-based; details: in vivo, 528 h, time 22 day
# HT-29 = test: Growth inhibition against human HT-29 cells assessed as lethal concentration incubated for 48 hrs by sulforhodamine B spectrophotometric assay; format: functional; details: read-out: LC50 (the source's name)
# HCT-116 = test: Growth inhibition of human HCT-116 cells incubated for 48 hrs by sulforhodamine B spectrophotometric assay; format: functional
# SF-295 [11] = test: Growth inhibition of human SF-295 cells incubated for 48 hrs by sulforhodamine B spectrophotometric assay; format: functional
# [12] = Acute toxicity in C57BL/6 mouse assessed as change in white blood cells at 20 mg/kg,ip administration observed after 22 days; format: organism-based; details: in vivo, 528 h, time 22 day
# KM12 = test: Growth inhibition against human KM12 cells assessed as total growth inhibitory concentration incubated for 48 hrs by sulforhodamine B spectrophotometric assay; format: functional
# CAKI-1 [13] = test: Growth inhibition of human CAKI-1 cells incubated for 48 hrs by sulforhodamine B spectrophotometric assay; format: functional
# HOP-92 [14] = test: Growth inhibition of human HOP-92 cells incubated for 48 hrs by sulforhodamine B spectrophotometric assay; format: functional
# MDA-MB-435 = test: Growth inhibition against human MDA-MB-435 cells assessed as lethal concentration incubated for 48 hrs by sulforhodamine B spectrophotometric assay; format: functional; details: read-out: LC50 (the source's name)
# HOP-92 [15] = test: Growth inhibition against human HOP-92 cells assessed as total growth inhibitory concentration incubated for 48 hrs by sulforhodamine B spectrophotometric assay; format: functional
# A549 = test: Growth inhibition against human A549 cells assessed as lethal concentration incubated for 48 hrs by sulforhodamine B spectrophotometric assay; format: functional; details: read-out: LC50 (the source's name)
# [16] = Cytotoxicity against mouse J774.2 cells assessed as cell growth inhibition incubated for 72 hrs by MTT assay; format: toxicity, cell-based
# CAKI-1 [17] = test: Growth inhibition against human CAKI-1 cells assessed as lethal concentration incubated for 48 hrs by sulforhodamine B spectrophotometric assay; format: functional; details: read-out: LC50 (the source's name)
# SN12C = test: Growth inhibition of human SN12C cells incubated for 48 hrs by sulforhodamine B spectrophotometric assay; format: functional
# [18] = Antileukemic activity against human CLL cell assessed as cell growth inhibition incubated for 72 hrs in presence of BST by MTT assay; format: functional, cell-based
compound,measurement,setting,value
O=C1C2=C(C(=O)c3c(O)cccc31)C(c1ccco1)c1sc(=O)[nH]c1S2 (stereo not given),CC50,MOLT-4,> 100 µM
same,GI50,EKVX,6.75 µM
same,IC50,K562,5.98 µM
same,TGI,PC-3 [1],21.6 µM
same,GI50,NCI-H460,1.54 µM
same,TGI,M14,2.37 µM
same,Activity,MDA-MB-231,37.3%
same,IC50 at 72 h,[2],6.07 µM
same,CC50,SF-268 [3],> 100 µM
same,CC50,COLO 205,6.93 µM
same,Ratio,[4],0.51
same,Activity,KB 3-1,Active
same,GI50,SF-268 [5],3.48 µM
same,GI50,SF-539,1.93 µM
same,CC50,PC-3 [6],> 100 µM
same,TGI,BT-549,3.19 µM
same,GI50,TK-10,12.3 µM
same,Activity,CCRF-CEM [7],19.29%
same,CC50,NCI-H322M,5.74 µM
same,CC50,SF-295 [8],6.5 µM
same,IC50,MCF7,3.08 µM
same,GI50,NCI-H226,2.18 µM
same,Activity,CCRF-CEM [9],20.54%
same,TGI,SK-OV-3,29.6 µM
same,GI50,HL-60,1.82 µM
same,TGI,SR,69.5 µM
same,GI50,Malme-3M,0.75 µM
same,CC50,SK-MEL-5,5.68 µM
same,TGI,SW-620,10.5 µM
same,CC50,OVCAR-8,36.2 µM
same,Ratio,[10],0.82
same,CC50,HT-29,> 100 µM
same,GI50,HCT-116,2.37 µM
same,GI50,SF-295 [11],1.98 µM
same,Activity,[12],Non-Toxic
same,TGI,KM12,31.3 µM
same,GI50,CAKI-1 [13],3.29 µM
same,GI50,HOP-92 [14],3.15 µM
same,CC50,MDA-MB-435,5.26 µM
same,TGI,HOP-92 [15],8.08 µM
same,CC50,A549,7.38 µM
same,IC50 at 72 h,[16],2.59 µM
same,CC50,CAKI-1 [17],37.3 µM
same,GI50,SN12C,1.74 µM
same,IC50,[18],8.24 µM
